ChEMBL document CHEMBL5143625, “Isolation, synthesis and bioactivity evaluation of isoquinoline alkaloids from Corydalis hendersonii Hemsl. against gastric cancer in vitro and in vivo” (Bioorg Med Chem, 2022)
Activity calls are given as the source filed them. No cut-off for these calls is given here.

Assays:
[1] = system: MGC-803; assay: Induction of apoptosis in human MGC-803 cells assessed as increase in twin-kiling cell nuclei at 1.25 to 10 uM by Hoechst 33342 staining based fluorescent microscopic analysis; type: functional; conditions: dose 1.25-10 µM
[2] = system: HGC-27; assay: Induction of ROS generation in human HGC-27 cells at 2 to 16 uM by DCFH-DA staining based fluorescence microscopic analysis; type: functional, cell-based; conditions: dose 2-16 µM, DDE = dose-dependent effect
[3] = system: HGC-27; assay: Induction of apoptosis in human HGC-27 cells assessed as reduction in BCl2 expression at 2 to 16 uM by western blot analysis; type: functional, cell-based; conditions: dose 2-16 µM, DDE = dose-dependent effect
[4] = system: HGC-27; assay: Inhibition of DNA topoisomerase 1 in human HGC-27 cells assessed as relaxation of supercoiled plasmid pBR322 DNA at 15 to 30 uM incubated for 30 mins by agarose gel electrophoresis; type: cell-based; conditions: dose 15-30 µM
[5] = system: MGC-803; assay: Inhibition of colony formation in human MGC-803 cells at 0.5 to 4 uM after 7 to 10 days by crystal violet staining based assay; type: functional, cell-based; conditions: dose 0.5-4 µM, time 7-10 day, DDE = dose-dependent effect
[6] = system: MGC-803; assay: Antiproliferative activity against human MGC-803 cells assessed as reduction in cell viability after 24 hrs by MTT assay; type: functional, cell-based; conditions: MGC-803, 24 h
[7] = system: MGC-803; assay: Induction of ROS generation in human MGC-803 cells at 1.25 to 10 uM by DCFH-DA staining based fluorescence microscopic analysis; type: functional, cell-based; conditions: dose 1.25-10 µM, DDE = dose-dependent effect
[8] = system: MGC-803; assay: Induction of mitochondrial membrane potential loss in human MGC-803 cells assessed as TMRE positive cells at 1.25 to 10 uM by TRME staining based flow cytometric analysis (reference value: 6.8%); type: functional, cell-based; conditions: dose 1.25-10 µM, DDE = dose-dependent effect
[9] = system: MGC-803; assay: Antitumor activity against human MGC-803 cells xenografted in immunodeficient nude mouse assessed as increase in TUNEL positive cells at 50 mg/kg, ip administered for 3 weeks by fluorescence microscopic analysis; type: functional, organism-based
[10] = system: HGC-27; assay: Induction of apoptosis in human HGC-27 cells assessed as decrease in cytochrome C expression at 2 to 16 uM by western blot analysis; type: functional, cell-based; conditions: dose 2-16 µM, DDE = dose-dependent effect
[11] = Tmax in Sprague-Dawley rat at 50 mg/kg, ip measured upto hrs by LC-MS analysis; type: ADME, organism-based; conditions: in vivo, time < 24 hrs
[12] = system: HGC-27; assay: Induction of apoptosis in human HGC-27 cells assessed as increase in Bax expression at 2 to 16 uM by western blot analysis; type: functional, cell-based; conditions: dose 2-16 µM, DDE = dose-dependent effect
[13] = system: HGC-27; assay: Inhibition of cell migration in human HGC-27 cells assessed as reduction in migration at 1 to 8 uM for 24 hrs by wound healing assay; type: functional, cell-based; conditions: dose 1-8 µM, DDE = dose-dependent effect
[14] = system: MGC-803; assay: Inhibition of PI3K/AKT/mTOR signalling pathway in human MGC-803 cells assessed as reduction in AKT phosphorylation at 1.25 to 10 uM by western blot analysis; type: cell-based; conditions: dose 1.25-10 µM, DDE = dose-dependent effect
[15] = AUC(0 to t) in Sprague-Dawley rat at 50 mg/kg, ip measured upto 24 hrs by LC-MS analysis; type: ADME, organism-based; set-up: time < 24 hrs, dose 50 mg/kg, route ip; conditions: in vivo
[16] = species on record: Homo sapiens; assay: Inhibition of DNA topoisomerase 1 (unknown origin) assessed as relaxation of supercoiled plasmid pBR322 DNA at 12.5 to 100 uM incubated for 30 mins by agarose gel electrophoresis; conditions: dose 12.5-100 µM
[17] = system: HGC-27; assay: Antiproliferative activity against human HGC-27 cells assessed as EdU positive cells at 1 to 8 uM for 24 hrs by y EdU assay (reference value: 56.2%); type: functional; conditions: dose 1-8 µM
[18] = system: MGC-803; assay: Inhibition of PI3K/AKT/mTOR signalling pathway in human MGC-803 cells assessed as reduction in mTOR phosphorylation at 1.25 to 10 uM by western blot analysis; type: cell-based; conditions: dose 1.25-10 µM, DDE = dose-dependent effect
[19] = system: MGC-803; assay: Induction of apoptosis in human MGC-803 cells assessed as increase in Bax expression at 1.25 to 10 uM by western blot analysis; type: functional, cell-based; conditions: dose 1.25-10 µM, DDE = dose-dependent effect
[20] = system: HGC-27; assay: Induction of apoptosis in human HGC-27 cells assessed as increase in cleaved caspase-9 expression at 2 to 16 uM by western blot analysis; type: functional, cell-based; conditions: dose 2-16 µM, DDE = dose-dependent effect
[21] = system: MGC-803; assay: Antitumor activity against human MGC-803 cells xenografted in immunodeficient nude mouse assessed as reduction in tumor growth at 50 mg/kg, ip administered for 3 weeks relative to control; type: functional; conditions: MGC-803, 504 h, read-out: TGI
[22] = system: HGC-27; assay: Induction of apoptosis in human HGC-27 cells assessed as increase in twin-kiling cell nuclei at 2 to 16 uM by Hoechst 33342 staining based fluorescent microscopic analysis; type: functional; conditions: dose 2-16 µM
[23] = system: HGC-27; assay: Inhibition of cell migration in human HGC-27 cells assessed as reduction in migration at 1 to 8 uM for 24 hrs by transwell migration assay; type: functional, cell-based; conditions: dose 1-8 µM, DDE = dose-dependent effect
[24] = system: HGC-27; assay: Induction of apoptosis in human HGC-27 cells assessed as increase in apoptotic cells at 2 to 16 uM after 48 hr by AnnexinV-FITC/PI staining based flow cytometric analysis (reference value: 5.03%); type: functional, cell-based; conditions: dose 2-16 µM, DDE = dose-dependent effect
[25] = Cmax in Sprague-Dawley rat at 50 mg/kg, ip measured upto 24 hrs by LC-MS analysis; type: ADME, organism-based; set-up: time < 24 hrs, dose 50 mg/kg, route ip; conditions: in vivo
[26] = system: HGC-27; assay: Inhibition of cell invasion in human HGC-27 cells assessed as reduction in invasion at 1 to 8 uM for 24 hrs by transwell invasion assay; type: functional, cell-based; conditions: dose 1-8 µM, DDE = dose-dependent effect
[27] = system: MGC-803; assay: Down regulation of MMP9 expression in human MGC-803 cells at 1.25 to 10 uM after 24 hrs by western blot analysis; type: functional, cell-based; conditions: dose 1.25-10 µM, DDE = dose-dependent effect
[28] = Half life in Sprague-Dawley rat at 50 mg/kg, ip measured upto 24 hrs by LC-MS analysis; type: ADME, organism-based; conditions: in vivo
[29] = system: HGC-27; assay: Inhibition of PI3K/AKT/mTOR signalling pathway in human HGC-27 cells assessed as reduction in PI3K phosphorylation at 2 to 16 uM by western blot analysis; type: cell-based; conditions: dose 2-16 µM, DDE = dose-dependent effect
[30] = system: HGC-27; assay: Inhibition of PI3K/AKT/mTOR signalling pathway in human HGC-27 cells assessed as reduction in mTOR phosphorylation at 2 to 16 uM by western blot analysis; type: cell-based; conditions: dose 2-16 µM, DDE = dose-dependent effect
[31] = system: HGC-27; assay: Inhibition of colony formation in human HGC-27 cells at 1 to 8 uM after 7 to 10 days by crystal violet staining based assay; type: functional, cell-based; conditions: dose 1-8 µM, time 7-10 day, DDE = dose-dependent effect
[32] = system: MGC-803; assay: Induction of cell cycle arrest in human MGC-803 cells assessed as cells accumulation at G2/M phase at 1.25 to 10 uM after 48 hrs by propidium iodide staining based flow cytometric analysis(reference value: 13.1%); type: functional; conditions: dose 1.25-10 µM
[33] = system: MGC-803; assay: Antitumor activity against human MGC-803 cells xenografted in immunodeficient nude mouse assessed as tumor weight at 50 mg/kg, ip administered for 3 weeks (reference value: 157.8 mg); type: functional
[34] = system: HGC-27; assay: Induction of cell cycle arrest in human HGC-27 cells assessed as cells accumulation at G2/M phase at 2 to 16 uM after 48 hrs by propidium iodide staining based flow cytometric analysis (reference value: 5.3%); type: functional; conditions: dose 2-16 µM
[35] = system: GES1; assay: Antiproliferative activity against human GES1 cells assessed as reduction in cell viability after 24 hrs by MTT assay; type: functional, cell-based; conditions: GES1, 24 h

- IC50 [6]: 5.1 µM
- Tmax [11]: 2 h
- AUC(0-t) at 24 h [15]: 29500 ng·h/mL
- inhibition [16]: Active
- Cmax [25]: 8900 ng/mL
- half-life [28]: 2.3 h
SMILES: Oc1c(Cc2nccc3cc4c(cc23)OCO4)ccc2c1OCO2
- Activity [1]: 29.5%
- Activity ([1]; DDE = dose-dependent effect): Dde
- Activity [2]: Dde
- Activity [3]: Dde
- inhibition [4]: Active
- inhibition [5]: Dde
- Activity [7]: Dde
- Activity [8]: Dde
- Activity [9]: Active
- Activity [10]: Dde
- Activity [12]: Dde
- inhibition [13]: Dde
- inhibition [14]: Dde
- Activity [17]: 20.8%
- inhibition [18]: Dde
- Activity [19]: Dde
- Activity [20]: Dde
- inhibition in vivo at 50 mg/kg [21]: 63.8%
- Activity [22]: 41.1%
- Activity ([22]; DDE = dose-dependent effect): Dde
- inhibition [23]: Dde
- Activity [24]: Dde
- inhibition [26]: Dde
- Activity [27]: Dde
- inhibition [29]: Dde
- inhibition [30]: Dde
- inhibition [31]: Dde
- Activity [32]: 54.4%
- Activity [33]: 176.2 mg
- Activity [34]: 51.2%
- IC50 [35]: 98.4 µM
